Laboratory results from patent US20260365682A1, “MODULATORS OF TNF-ALPHA ACTIVITY” (Forward Therapeutics, Inc., priority 2022, published 2026).
pIC50: −log10 of the molar value.

molecular target: T1, TNF-α (Homo sapiens, UniProt P01375); assay: TNF-α Induced HEK Blue Cellular Assay (secreted alkaline phosphatase expression, QUANTI-Blue); assay type: cell-based; conditions: HEK Blue TNFα reporter cells; TNF-α 100 μg/ml; 24 hrs at 37° C.; inhibition of secreted alkaline phosphatase; read-out: IC50 value
T1 construct: purchased R&D 210-TA-020/CF
T1 sequence (P01375 77-233 limits assumed): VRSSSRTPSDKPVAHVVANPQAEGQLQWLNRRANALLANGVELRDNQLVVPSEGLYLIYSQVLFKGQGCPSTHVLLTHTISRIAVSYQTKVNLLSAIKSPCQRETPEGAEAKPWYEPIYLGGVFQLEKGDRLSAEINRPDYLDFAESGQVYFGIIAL
Summary of the method: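 Compound was serially diluted from […] to 0.5 nM final, then incubated with 10,000 HEK Blue TNFα reporter cells per well and […] TNF-α for 24 h at 37° C. SEAP output was read by QUANTI-Blue absorbance at 620 nm. Inhibition was background-corrected against DMSO controls with and without stimulation, and IC50 was fitted with a 4-parameter logistic equation.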

pIC50	SMILES
> 7.00	[2H]C([2H])([2H])N1C(=O)c2cccc(OC(F)F)c2[C@H]2C[C@@H]1c1nc3ccc(C#CCCO)cc3n12 [Example 111, (7R,14R)-1-(difluoromethoxy)-11-(4-hydroxybut-1-yn-1-yl)-6-(methyl-d3)-6,7-dihydro-7,14-methanobenzo[f]benzo[4,5]imidazo[1,2-a][1,4]diazocin-5(14H)-one]
> 7.00	[2H]C([2H])([2H])N1C(=O)c2cccc(OC(F)F)c2[C@H]2C[C@@H]1c1nc3ccc(C#Cc4ccc(P(C)(C)=O)nc4)cc3n12 [Example 112, (7R,14R)-1-(difluoromethoxy)-11-((6-(dimethylphosphoryl)pyridin-3-yl)ethynyl)-6-(methyl-d3)-6,7-dihydro-7,14-methanobenzo[f]benzo[4,5]imidazo[1,2-a][1,4]diazocin-5(14H)-one]
> 7.00	[2H]C([2H])([2H])N1C(=O)c2cccc(OC(F)F)c2[C@H]2C[C@@H]1c1nc3ccc(C#CC4CC(N)C4)cc3n12 (stereo partly drawn) [Example 113, (7R,14R)-11-((3-aminocyclobutyl)ethynyl)-1-(difluoromethoxy)-6-(methyl-d3)-6,7-dihydro-7,14-methanobenzo[f]benzo[4,5]imidazo[1,2-a][1,4]diazocin-5(14H)-one]
> 7.00	[2H]C([2H])([2H])N1C(=O)c2cccc(OC(F)F)c2[C@H]2C[C@@H]1c1nc3ccc(C#CCCCN4CCOCC4)cc3n12 [Example 114, (7R,14R)-1-(difluoromethoxy)-6-(methyl-d3)-11-(5-morpholinopent-1-yn-1-yl)-6,7-dihydro-7,14-methanobenzo[f]benzo[4,5]imidazo[1,2-a][1,4]diazocin-5(14H)-one]
> 7.00	[2H]C([2H])([2H])N1C(=O)c2cccc(OC(F)F)c2[C@H]2C[C@@H]1c1nc3ccc(C#CCOC4CCN(C)CC4)cc3n12 [Example 115, (7R,14R)-1-(difluoromethoxy)-6-(methyl-d3)-11-(3-((1-methylpiperidin-4-yl)oxy)prop-1-yn-1-yl)-6,7-dihydro-7,14-methanobenzo[f]benzo[4,5]imidazo[1,2-a][1,4]diazocin-5(14H)-one]
5.00 to 6.00	[2H]C([2H])([2H])N1C(=O)c2cccc(OC(F)F)c2[C@H]2C[C@@H]1c1nc3ccc(C#CCOC4CCN(C(=O)OC(C)(C)C)CC4)cc3n12 [Example 116, tert-butyl 4-((3-((7R,14R)-1-(difluoromethoxy)-6-(methyl-d3)-5-oxo-5,6,7,14-tetrahydro-7,14-methanobenzo[f]benzo[4,5]imidazo[1,2-a][1,4]diazocin-11-yl)prop-2-yn-1-yl)oxy)piperidine-1-carboxylate]
6.00 to 7.00	[2H]C([2H])([2H])N1C(=O)c2cccc(OC(F)F)c2[C@H]2C[C@@H]1c1nc3ccc(C#CCOC4CCNCC4)cc3n12 [Example 117, (7R,14R)-1-(difluoromethoxy)-6-(methyl-d3)-11-(3-(piperidin-4-yloxy)prop-1-yn-1-yl)-6,7-dihydro-7,14-methanobenzo[f]benzo[4,5]imidazo[1,2-a][1,4]diazocin-5(14H)-one]
> 7.00	[2H]C([2H])([2H])N1C(=O)c2cccc(OC(F)F)c2[C@H]2C[C@@H]1c1nc3ccc(C#CC4CN(CC)C4)cc3n12 [Example 118, (7R,14R)-1-(difluoromethoxy)-11-((1-ethylazetidin-3-yl)ethynyl)-6-(methyl-d3)-6,7-dihydro-7,14-methanobenzo[f]benzo[4,5]imidazo[1,2-a][1,4]diazocin-5(14H)-one]
> 7.00	[2H]C([2H])([2H])N1C(=O)c2cccc(OC(F)F)c2[C@H]2C[C@@H]1c1nc3ccc(C#CC4CN(C(C)C)C4)cc3n12 [Example 119, (7R,14R)-1-(difluoromethoxy)-11-((1-isopropylazetidin-3-yl)ethynyl)-6-(methyl-d3)-6,7-dihydro-7,14-methanobenzo[f]benzo[4,5]imidazo[1,2-a][1,4]diazocin-5(14H)-one]
> 7.00	[2H]C([2H])([2H])N1C(=O)c2cccc(OC(F)F)c2[C@H]2C[C@@H]1c1nc3ccc(C#CC4CN(S(C)(=O)=O)C4)cc3n12 [Example 121, (7R,14R)-1-(difluoromethoxy)-6-(methyl-d3)-11-((1-(methylsulfonyl)azetidin-3-yl)ethynyl)-6,7-dihydro-7,14-methanobenzo[f]benzo[4,5]imidazo[1,2-a][1,4]diazocin-5(14H)-one]
6.00 to 7.00	[2H]C([2H])([2H])N1C(=O)c2cccc(OC(F)F)c2[C@H]2C[C@@H]1c1nc3ccc(C#CCCN)cc3n12 [Example 123, (7R,14R)-11-(4-aminobut-1-yn-1-yl)-1-(difluoromethoxy)-6-(methyl-d3)-6,7-dihydro-7,14-methanobenzo[f]benzo[4,5]imidazo[1,2-a][1,4]diazocin-5(14H)-one]
> 7.00	[2H]C([2H])([2H])N1C(=O)c2cccc(OC(F)F)c2[C@H]2C[C@@H]1c1nc3ccc(C#CC4CN(CC(F)(F)F)C4)cc3n12 [Example 124, (7R,14R)-1-(difluoromethoxy)-6-(methyl-d3)-11-((1-(2,2,2-trifluoroethyl)azetidin-3-yl)ethynyl)-6,7-dihydro-7,14-methanobenzo[f]benzo[4,5]imidazo[1,2-a][1,4]diazocin-5(14H)-one]
> 7.00	[2H]C([2H])([2H])N1C(=O)c2cccc(OC(F)F)c2[C@H]2C[C@@H]1c1nc3ccc(C#CC4CN(C(=O)C(C)(C)C)C4)cc3n12 [Example 125, (7R,14R)-1-(difluoromethoxy)-6-(methyl-d3)-11-((1-pivaloylazetidin-3-yl)ethynyl)-6,7-dihydro-7,14-methanobenzo[f]benzo[4,5]imidazo[1,2-a][1,4]diazocin-5(14H)-one]
> 7.00	[2H]C([2H])([2H])N1C(=O)c2cccc(OC(F)F)c2[C@H]2C[C@@H]1c1nc3ccc(C#CC4CN(C(=O)C(C)(C)O)C4)cc3n12 [Example 126, (7R,14R)-1-(difluoromethoxy)-11-((1-(2-hydroxy-2-methylpropanoyl)azetidin-3-yl)ethynyl)-6-(methyl-d3)-6,7-dihydro-7,14-methanobenzo[f]benzo[4,5]imidazo[1,2-a][1,4]diazocin-5(14H)-one]
> 7.00	[2H]C([2H])([2H])N1C(=O)c2cccc(OC(F)F)c2[C@H]2C[C@@H]1c1nc3ccc(C#CC4CN(C(=O)C5CC5)C4)cc3n12 [Example 127, (7R,14R)-11-((1-(cyclopropanecarbonyl)azetidin-3-yl)ethynyl)-1-(difluoromethoxy)-6-(methyl-d3)-6,7-dihydro-7,14-methanobenzo[f]benzo[4,5]imidazo[1,2-a][1,4]diazocin-5(14H)-one]
> 7.00	[2H]C([2H])([2H])N1C(=O)c2cccc(OC(F)F)c2[C@H]2C[C@@H]1c1nc3ccc(C#C[C@@H](C)CO)cc3n12 [Example 128, (7R,14R)-1-(difluoromethoxy)-11-((R)-4-hydroxy-3-methylbut-1-yn-1-yl)-6-(methyl-d3)-6,7-dihydro-7,14-methanobenzo[f]benzo[4,5]imidazo[1,2-a][1,4]diazocin-5(14H)-one]

same assay, conditions: IC50 value, HEK Blue TNFα reporter cells; TNF-α 100 μg/ml; 24 hrs at 37° C.; inhibition of secreted alkaline phosphatase

pIC50	SMILES
> 7.00	[2H]C([2H])([2H])N1C(=O)c2cccc(OC(F)F)c2[C@H]2C[C@@H]1c1nc3ccc(C#CC4CN(C(C)=O)C4)cc3n12 [Example 120, (7R,14R)-11-((1-acetylazetidin-3-yl)ethynyl)-1-(difluoromethoxy)-6-(methyl-d3)-6,7-dihydro-7,14-methanobenzo[f]benzo[4,5]imidazo[1,2-a][1,4]diazocin-5(14H)-one]
